We go through ten compounds from patent publication US10294226B2, “Small molecule inhibitors of the JAK family of kinases” (Janssen Pharmaceutica NV, priority 2016, dated 2019).

For data set [1], the system named is GM-CSF pSTAT5 (JAK2/JAK2). Briefly: GM-CSF pSTAT5 (JAK2/JAK2) cellular assay, AlphaLISA in PBMCs. The conditions noted are these: PBMC, GM-CSF 11 pg/mL. The format is cell-based. On the procedure:
The AlphaLISA assay (based on Alpha Technology from PerkinElmer) was performed by first plating freshly thawed PBMCs (Biological Specialty Corporation) in 384-well plates at 30,000 cells per 4 μL per well in HBSS containing 0.1% IgG-free, protease-free BSA (Jackson ImmunoResearch Cat. No. 001-000-161). The cells were then treated with 2 μL/well of compounds diluted in DMSO at half-log titrated concentrations, with a highest test concentration of 10 μM and 0.5% final DMSO concentration, for thirty minutes at 37° C. Next, the cells were stimulated with 2 μL/well of GM-CSF (R&D Systems Cat. No. 215-GM-050) at 11 pg/mL for fifteen minutes at 37° C. The cellular reactions were terminated by the addition of 2 μL/well of lysis buffer (PerkinElmer Cat. No. ALSU-PST5-A10K) followed by an incubation of five minutes at room temperature. 5 μL/well of acceptor mix (PerkinElmer Cat. No. ALSU-PST5-A10K) was added to the cells and incubated in the dark for one hour at room temperature. Then, 5 μL/well of donor mix (PerkinElmer Cat. No. ALSU-PST5-A10K) was added to the cells and incubated in the dark overnight at room temperature. Finally, the plates were read on a PerkinElmer EnVision for detection of the time-resolved fluorescence signal. The percentage of GM-CSF-dependent pSTAT5 inhibition was determined at the compound test concentrations; and for each compound, a dose curve was generated and the IC50 was calculated. Compound IC50 was calculated by nonlinear regression, sigmoidal dose response analysis of the half-log dilution titration curve of the compound concentration vs. Alpha signal. The term “Alpha” is defined in the IL-2 pSTAT5 (JAK1/JAK3) cellular assay description.

The subject of another data set is P-gp (MDR1). Put plainly: MDCK-MDR1 permeability assay. The format is in vitro ADME. To be noted: dog, MDCK-MDR1, pH 7.4, with elacridar 2 μM, @ 5 μM, apical to basolateral, with P-gp inhibitor elacridar (2 μM); read-out: MDCK-MDR1 P^eapp(A-B).
The test system of the next data set is IL-2 pSTAT5 (JAK1/JAK3). Briefly: IL-2 pSTAT5 (JAK1/JAK3) cellular assay, AlphaLISA in PBMCs. The conditions noted are these: PBMC, IL-2 5 ng/mL. It counts as cell-based. The method, then:
The AlphaLISA assay (based on Alpha Technology from PerkinElmer) was performed by first plating freshly thawed PBMCs (Biological Specialty Corporation) in 384-well plates at 30,000 cells per 4 μL per well in HBSS (Hanks' Balanced Salt Solution) containing 0.1% IgG (immunoglobulin G)-free, protease-free BSA (bovine serum albumin) (Jackson ImmunoResearch Cat. No. 001-000-161). The cells were then treated with 2 μL/well of compounds diluted in DMSO at half-log titrated concentrations, with a highest test concentration of 10 μM and 0.5% final DMSO concentration, for thirty minutes at 37° C. […] The cellular reactions were terminated by the addition of 2 μL/well of lysis buffer (PerkinElmer Cat. No. ALSU-PST5-A10K) followed by an incubation of five minutes at room temperature. 5 μL/well of acceptor mix (PerkinElmer Cat. No. ALSU-PST5-A10K) was added to the cells and incubated in the dark for one hour at room temperature. Then, 5 μL/well of donor mix (PerkinElmer Cat. No. ALSU-PST5-A10K) was added to the cells and incubated in the dark overnight at room temperature. Finally, the plates were read on a PerkinElmer EnVision for detection of the time-resolved fluorescence signal. The percentage of IL-2-dependent pSTAT5 inhibition was determined at the compound test concentrations; and for each compound, a dose curve was generated and the IC50 was calculated. Compound IC50 was calculated by nonlinear regression, sigmoidal dose response analysis of the half-log dilution titration curve of the compound concentration vs. Alpha signal. The acronym “Alpha” stands for amplified luminescent proximity homogeneous assay; the Alpha signal is a luminescent/fluorescent signal.

Molecules are shown by their SMILES.

As a reminder, the IC50 is the concentration that gives 50% inhibition.

Experimental for P-gp (MDR1): Permeability measurements were conducted according to the Cyprotex protocol using the MDCK-MDR1 cell line obtained from the NIH (Rockville, Md., USA). […] The cells in this assay form a cohesive sheet of a single cell layer filing the surface area of the culture dish, also known as a confluent monolayer, and on day four the test compound was added to the apical side of the membrane and the transport of the compound across the monolayer was monitored over a time period of 60 min.
Test compounds were dissolved in DMSO at a concentration of 10 mM. The dosing solutions were prepared by diluting test compound with assay buffer (Hanks Balanced Salt Solution), pH 7.4, at a final concentration of 5 μM. For assessment of apical to basolateral (“A-B”) permeability, buffer was removed from the apical compartment and replaced with test compound dosing solution with or without the permeability glycoprotein (“PgP”, “P-gP”, “Pgp” or “P-gp”) inhibitor elacridar (2 μM). For assessment of basolateral to apical (“B-A”) permeability, buffer was removed from the companion plate and replaced with test compound dosing solution. Incubations were carried out in duplicate at 37° C. in an atmosphere of 5% CO2 with a relative humidity of 95%. […] After incubation for 60 minutes, apical and basolateral samples were diluted and test compounds quantified by LC/MS/MS using an 8-point calibration in the range 0.0039 to 3 μM with appropriate dilution of the samples (receiver dilution factor=1; donor and C0 dilution factor=10). The permeability coefficient (Papp) for each compound was calculated from the following equation: Papp=(dQ/dt)/(C0×S), where dQ/dt is the rate of permeation of the drug across the cells, C0 is the donor compartment concentration at time zero, and S is the area of the cell monolayer.
The percent recovery was measured for all incubation conditions.
Papp(A-B) gives an indication of permeation extent across the cells in this assay, which is envisaged to model the transcellular transport across Pgp-expressing cells, such as Pgp-expressing gastrointestinal tract cells.
The integrity of each monolayer was monitored by examining the permeation of lucifer yellow by fluorimetric analysis.

For the compound `CC(C)(O)CNC(=O)Cc1nc2cnc3[nH]ccc3c2n1[C@H]1CC[C@H](CC#N)CC1` [Ex. 1, 2-(1-((1r,4r)-4-(Cyanomethyl)cyclohexyl)-1,6-dihydroimidazo[4,5-d]pyrrolo[2,3-b]pyridin-2-yl)-N-(2-hydroxy-2-methylpropyl)acetamide], the IC50 came to 83.9 nM in data set [1] and 21.6 nM in the data set with IL-2 pSTAT5 (JAK1/JAK3). In the data set with P-gp (MDR1), the Papp A→B at 60 min, 5 μM is 1.1 ×10⁻⁶ cm/s.
On to `N#CC[C@H]1CC[C@H](n2c(-c3c[nH]cn3)nc3cnc4[nH]ccc4c32)CC1` [Ex. 2, 2-((1r,4r)-4-(2-(1H-Imidazol-4-yl)imidazo[4,5-d]pyrrolo[2,3-b]pyridin-1(6H)-yl)cyclohexyl)acetonitrile], for which the figures for the IC50 (in data set [1]; with IL-2 pSTAT5 (JAK1/JAK3)) were 61 nM and 9 nM, respectively. For the same compound, the Papp A→B at 60 min, 5 μM in the data set with P-gp (MDR1) was determined as 1.6 ×10⁻⁶ cm/s.
On the same counts, the results for `N#CC[C@H]1CC[C@H](n2c(CC(=O)NCC3CC3)nc3cnc4[nH]ccc4c32)CC1` [Ex. 3, 2-(1-((1r,4r)-4-(Cyanomethyl)cyclohexyl)-1,6-dihydroimidazo[4,5-d]pyrrolo[2,3-b]pyridin-2-yl)-N-(cyclopropylmethyl)acetamide] are 21.9 nM, 6.4 nM and 2.3 ×10⁻⁶ cm/s.
For the compound `N#CCCNC(=O)Cc1nc2cnc3[nH]ccc3c2n1[C@H]1CC[C@H](CC#N)CC1` [Ex. 4, N-(2-Cyanoethyl)-2-(1-((1r,4r)-4-(cyanomethyl)cyclohexyl)-1,6-dihydroimidazo[4,5-d]pyrrolo[2,3-b]pyridin-2-yl)acetamide], the IC50 in data set [1] was found to be 119 nM; in the data set with IL-2 pSTAT5 (JAK1/JAK3), 35.5 nM. Also, the Papp A→B at 60 min, 5 μM in the data set with P-gp (MDR1) turned out to be 0.5 ×10⁻⁶ cm/s.
For `N#CC[C@H]1CC[C@H](n2c(CC(=O)NC3CCOCC3)nc3cnc4[nH]ccc4c32)CC1` [Ex. 5, 2-(1-((1r,4r)-4-(Cyanomethyl)cyclohexyl)-1,6-dihydroimidazo[4,5-d]pyrrolo[2,3-b]pyridin-2-yl)-N-(tetrahydro-2H-pyran-4-yl)acetamide], the figures for the IC50 (in data set [1]; in the data set on IL-2 pSTAT5 (JAK1/JAK3)) were 28.9 nM and 6.4 nM, respectively. Further, the Papp A→B at 60 min, 5 μM with P-gp (MDR1) is 0.7 ×10⁻⁶ cm/s.
On the same counts, the results for `N#CC[C@H]1CC[C@H](n2c(CC(=O)NCC3CCOCC3)nc3cnc4[nH]ccc4c32)CC1` [Ex. 6, 2-(1-((1r,4r)-4-(Cyanomethyl)cyclohexyl)-1,6-dihydroimidazo[4,5-d]pyrrolo[2,3-b]pyridin-2-yl)-N-((tetrahydro-2H-pyran-4-yl)methyl)acetamide] are 25.1 nM, 6.7 nM and 0.9 ×10⁻⁶ cm/s.
The matching figures for `CC(C)(C#N)CNC(=O)Cc1nc2cnc3[nH]ccc3c2n1[C@H]1CC[C@H](CC#N)CC1` [Ex. 7, N-(2-Cyano-2-methylpropyl)-2-(1-((1r,4r)-4-(cyanomethyl)cyclohexyl)-1,6-dihydroimidazo[4,5-d]pyrrolo[2,3-b]pyridin-2-yl)acetamide]: 67.3 nM, 9.7 nM and 1.2 ×10⁻⁶ cm/s.
On the same counts, the results for `N#CC[C@H]1CC[C@H](n2c(CC(=O)NCC3(O)CCC3)nc3cnc4[nH]ccc4c32)CC1` [Ex. 8, 2-(1-((1r,4r)-4-(Cyanomethyl)cyclohexyl)-1,6-dihydroimidazo[4,5-d]pyrrolo[2,3-b]pyridin-2-yl)-N-((1-hydroxycyclobutyl)methyl)acetamide] are 33.8 nM, 20.6 nM and 0.5 ×10⁻⁶ cm/s.
As to `N#CCC12CCC(NC(=O)Cc3nc4cnc5[nH]ccc5c4n3[C@H]3CC[C@H](CC#N)CC3)(CC1)C2` [Ex. 10, N-(4-(Cyanomethyl)bicyclo[2.2.1]heptan-1-yl)-2-(1-((1r, 4r)-4-(cyanomethyl)cyclohexyl)-1,6-dihydroimidazo[4,5-d]pyrrolo[2,3-b]pyridin-2-yl)acetamide], the figures for the half-maximal inhibitory concentration (IC50) (in data set [1]; in the data set on IL-2 pSTAT5 (JAK1/JAK3)) were 44.6 nM and 16.8 nM, respectively. The Papp A→B at 60 min, 5 μM in the data set with P-gp (MDR1) came out at 1.1 ×10⁻⁶ cm/s.
Turning to `N#CC[C@H]1CC[C@H](n2c(CC(=O)NCC3(O)CC3)nc3cnc4[nH]ccc4c32)CC1` [Ex. 12, 2-(1-((1r,4r)-4-(Cyanomethyl)cyclohexyl)-1,6-dihydroimidazo[4,5-d]pyrrolo[2,3-b]pyridin-2-yl)-N-((1-hydroxycyclopropyl)methyl)acetamide], the concentration for half-maximal inhibition (IC50) turned out to be 75.4 nM in data set [1] and 13.9 nM in the data set with IL-2 pSTAT5 (JAK1/JAK3). For the same compound, the Papp A→B at 60 min, 5 μM with P-gp (MDR1) was 0.6 ×10⁻⁶ cm/s.
